# In US11478466B2, “Small molecule promoting osteoblast differentiation” (Cornell University, priority 2019, dated 2022):
# Assays:
# [1] = test system: alkaline phosphatase (ALP); assay: Flow cytometric analysis of ALP-positive C2C12 cell population; format: cell-based, mouse; conditions: C2C12, day 2; baseline approximately 4% in DMSO-treated cells
# Description: C2C12 cells were treated for 2 days with 10 μM DIPQUO or structural analogs, 1 ng/ml rhBMP4, or with inhibitors as noted in figure legends, and then fixed briefly in 70% acetone/10% formaldehyde/20% citrate. Staining was achieved using the leukocyte alkaline phosphatase kit (Sigma 86R-1KT) according to the manufacturer's instructions. Expression of ALP was confirmed and quantified by flow cytometric analysis, using an Accuri C6 flow cytometer. Briefly, control- or DIPQUO-treated C2C12 cells were detached and harvested on day 2 using PBS-based enzyme-free cell detachment solution (ThermoFisher). 2×10^5 cells were incubated on ice for 30 minutes with 10 μl APC-conjugated ALPL antibody (R&D Systems), and washed in ice-cold PBS before analysis. Live cells were gated and analyzed in CFlow Plus software and then data was converted to FlowJo to achieve publication-level resolution. […] After an additional 3 days, cells were either fixed and stained for ALP expression or analyzed for ALP activity using the AttoPhos Substrate kit. Hemagglutinin and FLAG epitope-tagged MKK3 (pMT2-HA-MKK3) and MKK6 (pcDNA3-FLAG-MKK6) constructs were obtained from Addgene and transfected into C2C12 cells using Lipofectamine LTX with Plus Reagent (ThermoFisher) according to manufacturer's instructions and cell extracts analyzed for protein expression and activity as described below.
# [2] = test system: alkaline phosphatase (ALP)
# [3] = test system: PI3K/Akt, ERK, TGF-β/SMAD2/3, BMP/SMAD1/5/9; assay: Western blotting of other signaling effectors in C2C12 cells; format: cell-based, mouse
# Description: (§1) Whole cell extracts were collected from C2C12 or BRITER cells in complete lysis buffer (20 mM Tris, 150 mM NaCl, 50 mM NaF, 1% NP40 substitute, HALT protease inhibitor cocktail (ThermoScientific). Proteins were resolved by electrophoresis on pre-cast 10% NuPage Bis-Tris gels (Invitrogen) and transferred to PVDF membranes (Bio-Rad). Membranes were blocked in 5% BSA-TBS-0.5% Tween-20 for 15 minutes, then incubated at 4° overnight with primary antibodies. Antibodies used were: rabbit anti-phospho-p38 MAPK (cat. no. 9211), anti-p38 MAPK XP (8690), anti-phospho-SMAD1/5 (9516), anti-SMAD1 XP (6944), anti-phospho-SMAD2/3 (8828), anti-SMAD2/3 XP (8685), anti-phospho-JNK (4668), anti-SAPK/JNK (9252), anti-phospho-Akt XP (4060), pan anti-Akt (4691), anti-phospho ERK p42/p44 (4377), anti-ERK p42/p44 (9102), anti-phospho-MKK3/6 (12280), anti-MKK3 (8535), anti-phospho-TAK1 (4531), anti-TAK1 (5206), anti-HA (3274), and anti-FLAG (14793); all from Cell Signaling); and mouse anti-p38α (cat. no. 33-1300), anti-p38β (33-8700; both ThermoFisher) and anti-β-actin (Sigma A1978). Proteins were visualized with HRP-conjugated secondary antibodies (Bio-Rad) with WestPico (ThermoFisher) or Immobilon (Millipore) chemiluminescence reagents. Images were obtained and analyzed for relative densitometric relationships on a LI-COR C-DiGit scanner using Image Studio software.
# JNK p54 = assay: Western blotting of JNK in C2C12 cells; format: cell-based, mouse
# Description: as §1
smiles,measurement,setting,value
"Cc1cc(C)c2[nH]c(=O)c(-c3[nH]cnc3-c3ccccc3)cc2c1 [RU-0226606, 6,8-dimethyl-3-(4-phenyl-1H-imidazol-5-yl)quinolin-2(1H)-one]",ALP-expressing fraction of the cell culture (flow cytometry),[1],> 30%
same,RFU Score (10 μM),"[2]; 154-analog library, 10 μM, C2C12, duplicate",3104
same,Fluo. Z Score,"[2]; SAR of library and proprietary analogs, AttoPhos assay, C2C12",34.56 ± 1.80
same,RFU Score Threshold ≥ 800,"[2]; primary screen, 10 μM, C2C12, 4 days, Ex 450/Em 580 nm, rank in brackets not taken",4000 (1)
same,Fluorescence Z Score Threshold ≥ 10,"[2]; primary screen, 10 μM, C2C12, 4 days, Z score on DMSO control wells",94.38 (1)
same,"other pathways (PI3K/Akt, ERK, TGF-β/SMAD2/3, BMP/SMAD1/5/9)",[3],no change observed
same,JNK p54 signaling,JNK p54,suppressed the p54 isoform
